In patent publication US10031125B2, “Diagnosis and treatment of invasive aspergillosis” (THE BRIGHAM AND WOMEN'S HOSPITAL, INC., priority 2012, dated 2018):
Starred links: 1 amine or outer side, 2 acyl side, 3 side chain; linkers in the order of their positions; H or OH if unused. Positions of bridges follow the written chain, without caps; N, C: chain ends. Non-standard residues stand in square brackets, D forms with d. Residues, ends and D or L forms follow the SMILES beside them. *: point of attachment. hTyr(3S-OH,4S-OH,3'-OSO3H) = N[C@H](C(=O)O)[C@H](O)[C@@H](O)c1ccc(O)c(OS(=O)(=O)O)c1; Orn(4R-OH,5R-OH) = O=C([C@H](C[C@@H](O)[C@@H](O)N[*:3])N[*:1])[*:2]; Pro(3S-OH,4S-Me) = C[C@H]1CN[C@H](C(=O)O)[C@H]1O; X1 = CCCCCOc1ccc(-c2cc(-c3ccc(C(=O)*)cc3)no2)cc1; Gln(3R-OH) = NC(=O)C[C@@H](O)[C@H](N)C(=O)O; Hyp = O=C(O)[C@@H]1C[C@@H](O)CN1

Columns and labels:
Aspergillus fumigatus = assay: Antifungal exposure modulates the release of VOCs in A. fumigatus in vitro (headspace GC-MS); type: cell-based; settings: for change in key A. fumigatus VOC features at 24 hours: compared to matched control samples
Procedure: For each experiment, 10^4 conidia were inoculated into 5 mL of microbial media (either nutrient Yeast Extract Peptone Dextrose (YPD) broth, nutrient poor Aspergillus minimal media (Pontecorvo et al., Advan Genet 1953; 5:141-238), or under iron-starved, alkaline stress, or nitrogen-depleted conditions (McDonagh et al., PLoS Pathog 2008; 4:e1000154)) in 20 mL glass vials with an airtight crimp top incorporating a rubber septum. Cultures were incubated for 24-144 hours at 200 rpm and 37° C. and headspace gas was dynamically adsorbed, using argon carrier gas and an air sampling pump calibrated to 20 mL/minute, onto Markes thermal desorption traps containing tandem beds of Tenax TA (200 mg), Carbograph 1 TD (100 mg), and Carboxen 1003 (100 mg), optimized to retain VOCs of diverse size and polarity.
Headspace VOCs were also collected after exposure of a subset of fungal isolates to the antifungal drugs voriconazole, liposomal amphotericin B, and micafungin, each at a concentration of […].
VOCs were desorbed onto a dual GC-MS/DMS system (FIG. 1)—the eluent from the gas chromatograph was split between the MS, to allow identification of each compound, and the DMS, an extremely sensitive and selective gas detector that can be easily used as a point-of-care gas detection device, to determine the mobility pattern for each compound. The NIST MS Search 2.0 Library was used to identify VOCs in the total ion chromatogram (TIC) of the GC-MS data. Differences in spectral features of DMS output were visually distinguished between the positive ion spectra of A. fumigatus and A. terreus and principal component analysis (PCA) was used to evaluate the degree of class discrimination between these fungal species using algorithms in MATLAB (Version R2012a).
Whether exposure to antifungal drugs might modulate VOC release in Aspergillus fumigatus was assessed in vitro.

A. terreus = settings: some isolates; Baddley et al., J. Clin. Microbiol. 2009; cited from earlier work
[1] = added to 48-hour hyphal cultures, after 24 hours, 1.0 mg/mL

Row | SMILES | increase in some of the key A. fumigatus VOC features (Aspergillus fumigatus; added to 48-hour hyphal cultures, after 24 hours, compared to matched control samples without drug, 1.0 mg/mL) [fold] | change in key A. fumigatus VOC features at 24 hours (Aspergillus fumigatus; [1]) | key A. fumigatus VOC features with longer incubation (Aspergillus fumigatus; longer duration of incubation and hyphal death) | susceptibility of A. terreus isolates (A. terreus)
1 | CCCCCOc1ccc(-c2cc(-c3ccc(C(=O)N[C@H]4C[C@@H](O)[C@@H](O)NC(=O)[C@@H]5[C@@H](O)[C@@H](C)CN5C(=O)[C@H]([C@H](O)CC(N)=O)NC(=O)[C@H]([C@H](O)[C@@H](O)c5ccc(O)c(OS(=O)(=O)O)c5)NC(=O)[C@@H]5C[C@@H](O)CN5C(=O)[C@H]([C@@H](C)O)NC4=O)cc3)no2)cc1 [micafungin] (X1-[Orn(4R-OH,5R-OH)]T[Hyp][hTyr(3S-OH,4S-OH,3'-OSO3H)][Gln(3R-OH)][Pro(3S-OH,4S-Me)]; lactam 1-C) | ≤ 17 | initial increase | attenuation | 
2 | C[C@@H]1[C@H](O)[C@@H](C)/C=C/C=C/C=C/C=C/C=C/C=C/C=C/[C@H](O[C@@H]2O[C@H](C)[C@@H](O)[C@H](N)[C@@H]2O)C[C@@H]2O[C@](O)(C[C@@H](O)C[C@@H](O)[C@H](O)CC[C@@H](O)C[C@@H](O)CC(=O)O[C@H]1C)C[C@H](O)[C@H]2C(=O)O [AMB, amphotericin B] |  |  |  | resistant
3 | C[C@@H](c1ncncc1F)[C@](O)(Cn1cncn1)c1ccc(F)cc1F [voriconazole] |  | near-complete attenuation |  | 
